Dmax and DC50 data for 15 compounds are collected here from patent publication US11986532B2 (Arvinas Operations, Inc., priority 2021, dated 2024).

Some results are limits rather than exact numbers.

The target in the test is T1, BCL6 (Homo sapiens, UniProt P41182).
T1 construct: endogenous in cells; host or cells: T47D breast cancer epithelial cells
Nature of the test: Immunofluorescence protocol for high content imaging of BCL6 (degradation) in T47D cells, 3 days compound treatment. To be noted: for Dmax: T47D, read-out: Mean Dmax (%)** category; for DC50: read-out: Mean DC50 (nM)* category. In kind it is cell-based. The gist of the method:
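Cells are seeded to reach ~70-90% confluence at endpoint, then dosed next day with compound at a final top concentration of 0.1 or 1 μM (11 points, 3-fold). After 3 days, BCL6 is detected by immunofluorescence and quantified by high-content imaging.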

For orientation: Dmax means the largest share of the target that was removed. As a reminder, the DC50 is the concentration giving 50% degradation. Consider `CNC(=O)COc1cc2c(F)c(Nc3cc(N4CCC(CN5CCC6(CN(c7ccc8c(c7)CN(C7CCC(=O)NC7=O)C8=O)C6)C(F)(F)C5)CC4)ncc3Cl)ccc2n(C(C)C)c1=O` (stereo not drawn) [Compound 251, 2-{[6-({5-chloro-2-[4-({2-[2-(2,6-dioxopiperidin-3-yl)-1-oxo-2,3-dihydro-1H-isoindol-5-yl]-5,5-difluoro-2,7-diazaspiro[3.5]nonan-7-yl}methyl)piperidin-1-yl]pyridin-4-yl}amino)-5-fluoro-2-oxo-1-(propan-2-yl)-1,2-dihydroquinolin-3-yl]oxy}-N-methylacetamide], for which the Dmax was at least 70% and the DC50 was under 10 nM.

As to `CNC(=O)COc1cc2c(F)c(Nc3cc(N4CCC(CN5CCC6(CN(c7ccc8c(c7F)CN(C7CCC(=O)NC7=O)C8=O)C6)C(F)(F)C5)CC4)ncc3Cl)ccc2n(C(C)C)c1=O` (stereo not drawn) [Compound 252, 2-{[6-({5-chloro-2-[4-({2-[2-(2,6-dioxopiperidin-3-yl)-4-fluoro-1-oxo-2,3-dihydro-1H-isoindol-5-yl]-5,5-difluoro-2,7-diazaspiro[3.5]nonan-7-yl}methyl)piperidin-1-yl]pyridin-4-yl}amino)-5-fluoro-2-oxo-1-(propan-2-yl)-1,2-dihydroquinolin-3-yl]oxy}-N-methylacetamide], the Dmax was 50 to 70% and the DC50 is under 10 nM.

With `CNC(=O)COc1cc2cc(Nc3nc(N4CCC(O[C@H]5C[C@H](N6[C@@H](C)CN(c7ccc8c(c7)C(=O)N(C7CCC(=O)NC7=O)C8=O)C[C@@H]6C)C5)CC4)ncc3Cl)ccc2n(C(C)C)c1=O` (stereo partly drawn) [Compound 253, 2-({6-[(5-chloro-2-{4-[(1r,3r)-3-[(2S,6S)-4-[2-(2,6-dioxopiperidin-3-yl)-1,3-dioxo-2,3-dihydro-1H-isoindol-5-yl]-2,6-dimethylpiperazin-1-yl]cyclobutoxy]piperidin-1-yl}pyrimidin-4-yl)amino]-2-oxo-1-(propan-2-yl)-1,2-dihydroquinolin-3-yl}oxy)-N-methylacetamide], the Dmax is at least 70% and the DC50 fell in the range of 10 to 50 nM.

As for `CNC(=O)COc1cc2cc(Nc3nc(N4CCC(O[C@H]5C[C@H](N6[C@@H](C)CN(c7ccc8c(c7)CN(C7CCC(=O)NC7=O)C8=O)C[C@@H]6C)C5)CC4)ncc3Cl)ccc2n(C(C)C)c1=O` (stereo partly drawn) [Compound 254, 2-({6-[(5-chloro-2-{4-[(1r,3r)-3-[(2S,6S)-4-[2-(2,6-dioxopiperidin-3-yl)-1-oxo-2,3-dihydro-1H-isoindol-5-yl]-2,6-dimethylpiperazin-1-yl]cyclobutoxy]piperidin-1-yl}pyrimidin-4-yl)amino]-2-oxo-1-(propan-2-yl)-1,2-dihydroquinolin-3-yl}oxy)-N-methylacetamide], the Dmax is at least 70% and the DC50 was under 10 nM.

As to `CNC(=O)COc1cc2cc(Nc3nc(N4CCC(CN5[C@@H](C)CC6(C[C@@H]5C)CN(c5ccc7c(c5)C(=O)N(C5CCC(=O)NC5=O)C7=O)C6)CC4)ncc3Cl)ccc2n(C(C)C)c1=O` (stereo partly drawn) [Compound 255, 2-[(6-{[5-chloro-2-(4-{[(6S,8S)-2-[2-(2,6-dioxopiperidin-3-yl)-1,3-dioxo-2,3-dihydro-1H-isoindol-5-yl]-6,8-dimethyl-2,7-diazaspiro[3.5]nonan-7-yl]methyl}piperidin-1-yl)pyrimidin-4-yl]amino}-2-oxo-1-(propan-2-yl)-1,2-dihydroquinolin-3-yl)oxy]-N-methylacetamide], the Dmax lay in the range of 50 to 70% and the DC50 was under 10 nM.

Turning to `CNC(=O)COc1cc2cc(Nc3nc(N4CCC(O[C@H]5C[C@H](N6CCC(c7ccc8c(c7)C(=O)N(C7CCC(=O)NC7=O)C8=O)C6)C5)CC4)ncc3Cl)ccc2n(C(C)C)c1=O` (stereo partly drawn) [Compound 256, 2-({6-[(5-chloro-2-{4-[(1r,3r)-3-{3-[2-(2,6-dioxopiperidin-3-yl)-1,3-dioxo-2,3-dihydro-1H-isoindol-5-yl]pyrrolidin-1-yl}cyclobutoxy]piperidin-1-yl}pyrimidin-4-yl)amino]-2-oxo-1-(propan-2-yl)-1,2-dihydroquinolin-3-yl}oxy)-N-methylacetamide], the Dmax is 50 to 70% and the DC50 is 10 to 50 nM.

In the case of `CNC(=O)COc1cc2cc(Nc3cc(N4CCC(F)(CN5CCC6(CC5)CN(c5ccc7c(c5F)CN(C5CCC(=O)NC5=O)C7=O)C6(C)C)CC4)ncc3Cl)ccc2n(C(C)C)c1=O` (stereo not drawn) [Compound 257, 2-{[6-({5-chloro-2-[4-({2-[2-(2,6-dioxopiperidin-3-yl)-4-fluoro-1-oxo-2,3-dihydro-1H-isoindol-5-yl]-1,1-dimethyl-2,7-diazaspiro[3.5]nonan-7-yl}methyl)-4-fluoropiperidin-1-yl]pyridin-4-yl}amino)-2-oxo-1-(propan-2-yl)-1,2-dihydroquinolin-3-yl]oxy}-N-methylacetamide], the Dmax lay within 50 to 70% and the DC50 was under 10 nM.

On to `CNC(=O)COc1cc2cc(Nc3cc(N4CCC(O[C@H]5C[C@H](N6CCC(c7ccc8c(c7F)CN(C7CCC(=O)NC7=O)C8=O)CC6)C5)CC4)ncc3Cl)ccc2n(C(C)C)c1=O` (stereo partly drawn) [Compound 258, 2-({6-[(5-chloro-2-{4-[(1r,3r)-3-{4-[2-(2,6-dioxopiperidin-3-yl)-4-fluoro-1-oxo-2,3-dihydro-1H-isoindol-5-yl]piperidin-1-yl}cyclobutoxy]piperidin-1-yl}pyridin-4-yl)amino]-2-oxo-1-(propan-2-yl)-1,2-dihydroquinolin-3-yl}oxy)-N-methylacetamide], for which the Dmax is 50 to 70% and the DC50 was under 10 nM.

Turning to `CNC(=O)COc1cc2c(F)c(Nc3cc(N4CCC(F)(CN5CCC6(CC5)CN(c5ccc7c(c5F)CN(C5CCC(=O)NC5=O)C7=O)C6)CC4)ncc3Cl)ccc2n(C(C)C)c1=O` (stereo not drawn) [Compound 259, 2-{[6-({5-chloro-2-[4-({2-[2-(2,6-dioxopiperidin-3-yl)-4-fluoro-1-oxo-2,3-dihydro-1H-isoindol-5-yl]-2,7-diazaspiro[3.5]nonan-7-yl}methyl)-4-fluoropiperidin-1-yl]pyridin-4-yl}amino)-5-fluoro-2-oxo-1-(propan-2-yl)-1,2-dihydroquinolin-3-yl]oxy}-N-methylacetamide], the Dmax was in the range of 50 to 70% and the DC50 is under 10 nM.

Consider `CNC(=O)COc1cc2cc(Nc3nc(N4CCC(OC5CN(C6CCN(c7ccc8c(c7F)CN(C7CCC(=O)NC7=O)C8=O)CC6)C5)CC4)ncc3Cl)ccc2n(C(C)C)c1=O` (stereo not drawn) [Compound 260, 2-({6-[(5-chloro-2-{4-[(1-{1-[2-(2,6-dioxopiperidin-3-yl)-4-fluoro-1-oxo-2,3-dihydro-1H-isoindol-5-yl]piperidin-4-yl}azetidin-3-yl)oxy]piperidin-1-yl}pyrimidin-4-yl)amino]-2-oxo-1-(propan-2-yl)-1,2-dihydroquinolin-3-yl}oxy)-N-methylacetamide], for which the Dmax is 50 to 70% and the DC50 is under 10 nM.

As to `CNC(=O)COc1cc2cc(Nc3nc(N4CCC(O[C@H]5C[C@H](N6CCN(c7ccc8c(c7)C(=O)N(C7CCC(=O)NC7=O)C8=O)C[C@@H]6C)C5)CC4)ncc3Cl)ccc2n(C(C)C)c1=O` (stereo partly drawn) [Compound 261, 2-({6-[(5-chloro-2-{4-[(1r,3r)-3-[(2S)-4-[2-(2,6-dioxopiperidin-3-yl)-1,3-dioxo-2,3-dihydro-1H-isoindol-5-yl]-2-methylpiperazin-1-yl]cyclobutoxy]piperidin-1-yl}pyrimidin-4-yl)amino]-2-oxo-1-(propan-2-yl)-1,2-dihydroquinolin-3-yl}oxy)-N-methylacetamide], the Dmax was in the range of 50 to 70% and the DC50 was in the range of 10 to 50 nM.

Take `CNC(=O)COc1cc2c(F)c(Nc3cc(N4CCC(F)(CN5CCC6(CC5)CN(c5ccc7c(c5)CN(C5CCC(=O)NC5=O)C7=O)C6)CC4)ncc3Cl)ccc2n(C(C)C)c1=O` (stereo not drawn) [Compound 262, 2-{[6-({5-chloro-2-[4-({2-[2-(2,6-dioxopiperidin-3-yl)-1-oxo-2,3-dihydro-1H-isoindol-5-yl]-2,7-diazaspiro[3.5]nonan-7-yl}methyl)-4-fluoropiperidin-1-yl]pyridin-4-yl}amino)-5-fluoro-2-oxo-1-(propan-2-yl)-1,2-dihydroquinolin-3-yl]oxy}-N-methylacetamide]: the Dmax fell in the range of 50 to 70% and the DC50 was under 10 nM.

Regarding `CNC(=O)COc1cc2cc(Nc3nc(N4CCC(O[C@H]5C[C@H](N6CCN(c7ccc8c(c7)C(=O)N(C7CCC(=O)NC7=O)C8=O)C[C@H]6C)C5)CC4)ncc3Cl)ccc2n(C(C)C)c1=O` (stereo partly drawn) [Compound 263, 2-({6-[(5-chloro-2-{4-[(1r,3r)-3-[(2R)-4-[2-(2,6-dioxopiperidin-3-yl)-1,3-dioxo-2,3-dihydro-1H-isoindol-5-yl]-2-methylpiperazin-1-yl]cyclobutoxy]piperidin-1-yl}pyrimidin-4-yl)amino]-2-oxo-1-(propan-2-yl)-1,2-dihydroquinolin-3-yl}oxy)-N-methylacetamide], the Dmax was 50 to 70% and the DC50 was under 10 nM.

Consider `CC(C)n1c(=O)c(OCC(=O)O)cc2cc(Nc3nc(N4CCC(O[C@H]5C[C@H](N6CCC(c7ccc8c(c7F)CN(C7CCC(=O)NC7=O)C8=O)CC6)C5)CC4)ncc3Cl)ccc21` (stereo partly drawn) [Compound 264, 2-({6-[(5-chloro-2-{4-[(1r,3r)-3-{4-[2-(2,6-dioxopiperidin-3-yl)-4-fluoro-1-oxo-2,3-dihydro-1H-isoindol-5-yl]piperidin-1-yl}cyclobutoxy]piperidin-1-yl}pyrimidin-4-yl)amino]-2-oxo-1-(propan-2-yl)-1,2-dihydroquinolin-3-yl}oxy)acetic acid], for which the Dmax was at least 70% and the DC50 is under 10 nM.

For the compound `CC(C)n1c(=O)c(OCC(=O)N(C)O)cc2cc(Nc3nc(N4CCC(O[C@H]5C[C@H](N6CCC(c7ccc8c(c7F)CN(C7CCC(=O)NC7=O)C8=O)CC6)C5)CC4)ncc3Cl)ccc21` (stereo partly drawn) [Compound 265, 2-({6-[(5-chloro-2-{4-[(1r,3r)-3-{4-[2-(2,6-dioxopiperidin-3-yl)-4-fluoro-1-oxo-2,3-dihydro-1H-isoindol-5-yl]piperidin-1-yl}cyclobutoxy]piperidin-1-yl}pyrimidin-4-yl)amino]-2-oxo-1-(propan-2-yl)-1,2-dihydroquinolin-3-yl}oxy)-N-hydroxy-N-methylacetamide], the Dmax was at least 70% and the DC50 was under 10 nM.
